Measurements: US6133319A, “IL-8 receptor antagonists” (SmithKline Beecham Corporation, priority 1999, dated 2000)

Target: T1, recombinant human IL-8 type b receptor (IL-8 Rb, Type II, permissive receptor) (Homo sapiens, UniProt P25025)
T1 sequence (P25025 1-360): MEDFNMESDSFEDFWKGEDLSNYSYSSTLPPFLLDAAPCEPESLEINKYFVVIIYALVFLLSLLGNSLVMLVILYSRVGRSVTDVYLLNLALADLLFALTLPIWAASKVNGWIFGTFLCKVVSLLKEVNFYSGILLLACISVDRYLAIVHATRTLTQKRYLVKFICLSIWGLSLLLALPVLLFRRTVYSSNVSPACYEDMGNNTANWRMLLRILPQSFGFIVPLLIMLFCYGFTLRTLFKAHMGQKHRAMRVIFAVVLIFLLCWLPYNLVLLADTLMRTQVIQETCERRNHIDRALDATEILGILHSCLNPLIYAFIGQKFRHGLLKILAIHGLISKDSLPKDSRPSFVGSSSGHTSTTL
Assay: Receptor binding assay, [125I] IL-8 binding to IL-8 Rb (Type II, permissive) receptor membranes
Conditions: recombinant IL-8 Rb (Type II) CHO membranes
Experimental: The IL-8, and Gro-a chemokine inhibitiory effects of compounds of the present invention were determined by the following in vitro assay:
[^125 I] IL-8 (human recombinant) was obtained from Amersham Corp., Arlington Heights, Ill., with specific activity 2000 Ci/mmol. Gro-a was obtained from NEN- New England Nuclear. All other chemicals were of analytical grade. High levels of recombinant human IL-8 type a and b receptors were individually expressed in Chinese hamster ovary cells as described previously (Holmes, et al., Science, 1991, 253, 1278). The Chinese hamster ovary membranes were homogenized according to a previously described protocol (Haour, et al., J Biol Chem., 249 pp 2195-2205 (1974)). Except that the homogenization buffer was changed to 10 mM Tris-HCl, 1 mM MgS04, 0.5 mM EDTA (ethylene-diaminetetraacetic acid), 1 mM PMSF (a-toulenesulphonly flouride), 0.5 mg/L Leupeptin, pH 7.5. Membrane protein concentration was determined using Pierce Co. micro-assay kit using bovine serum albumin as a standard. All assays were performed in a 96-well micro plate format. Each reaction mixture contained ^125 I IL-8 (0.25 nM) or ^125 I Gro-a and 0.5 μg/mL of IL-8Ra or 1.0 μg/mL of IL-8Rb membranes in 20 mM Bis-Trispropane and 0.4 mM Tris HCl buffers, pH 8.0, containing 1.2 mM MgSO4, 0.1 mM EDTA, 25 mM NaCl and 0.03% CHAPS. In addition, drug or compound of interest was added which had been pre-dissolved in DMSO so as to reach a final concentration of between 0.01 nM and 100 uM. The assay was initiated by addition of ^125 I-IL-8. After 1 hour at room temperature the plate was harvested using a Tomtec 96-well harvester onto a glass fiber filtermat blocked with 1% polyethylenimine/0.5% BSA and washed 3 times with 25 mM NaCl, 10 mM TrisHCl, 1 mM MgSO4, 0.5 mM EDTA, 0.03% CHAPS, pH 7.4. The filter was then dried and counted on the Betaplate liquid scintillation counter. The recombinant IL-8 Ra, or Type I, receptor is also referred to herein as the non-permissive receptor and the recombinant IL-8 Rb, or Type II, receptor is referred to as the permissive receptor.

Compound | activity in the permissive models for IL-8 receptor inhibition (result in words)
O=C(O)CCNC(=O)Nc1ccc([N+](=O)[O-])cc1O [N-(2-carboxyethyl)-N'-(2-hydroxy-4-nitrophenyl)urea] | inactive
CC(C)(COCc1ccccc1)NC(=O)Nc1ccc([N+](=O)[O-])cc1O [Example 6, N-(1,1-Dimethyl-2-benzoxyethyl)-N'-(2-hydroxy-4-nitrophenyl)urea] | inactive
CC(C)OCCNC(=O)Nc1ccc([N+](=O)[O-])cc1O [N-(ethylisopropylether)-N'-(2-hydroxy-4-nitro-phenyl)urea] | inactive
N#Cc1ccc(NC(=O)N[C@@H]2CCCC[C@H]2OCc2ccccc2)c(NS(=O)(=O)c2ccccc2)c1 (relative stereo) [N-trans-(2-benzyloxycyclohexyl)-N'-((2-benzenesulfonylamino)4-cyanophenyl))urea] | inactive
